In ChEMBL document CHEMBL3526130, “An evaluation of using rat-derived single-dose neuropharmacokinetic parameters to project accurately large animal unbound brain drug concentrations” (Drug Metab Dispos, 2012):

What was measured:
[1] = Unbound fraction in cynomolgus monkey plasma treated with risperidone at 0.1 mg/kg, sc by LC-MS/MS analysis; format: ADME, organism-based, Macaca fascicularis; set-up: dose 0.1 mg/kg, route subcutaneous
[2] = Unbound fraction in cynomolgus monkey brain treated with risperidone at 0.1 mg/kg, sc by LC-MS/MS analysis; format: ADME, organism-based, Macaca fascicularis; set-up: dose 0.1 mg/kg, route subcutaneous
[3] = AUC(0 to 2 hrs) in Beagle dog plasma treated with risperidone at 0.1 mg/kg, sc by LC-MS/MS analysis; format: ADME, organism-based, Canis lupus familiaris; set-up: time < 2 hr, dose 0.1 mg/kg, route subcutaneous
[4] = AUC(0 to 1 hr) in cynomolgus monkey plasma treated with risperidone at 0.1 mg/kg, sc by LC-MS/MS analysis; format: ADME, organism-based, Macaca fascicularis; set-up: time < 1 hr, dose 0.1 mg/kg, route subcutaneous
[5] = AUC(0 to 2 hrs) in Sprague-Dawley rat plasma treated with risperidone at 1 mg/kg, sc by LC-MS/MS analysis; format: ADME, organism-based; set-up: time < 2 hr, dose 1 mg/kg, route subcutaneous
[6] = AUC(0 to infinity) in Sprague-Dawley rat plasma treated with risperidone at 1 mg/kg, sc by LC-MS/MS analysis; format: ADME, organism-based; set-up: time infinity, dose 1 mg/kg, route subcutaneous
[7] = AUC(0 to 2 hrs) in Sprague-Dawley rat cerebrospinal fluid treated with risperidone at 1 mg/kg, sc by LC-MS/MS analysis; format: ADME, organism-based; set-up: time < 2 hr, dose 1 mg/kg, route subcutaneous
[8] = AUC(0 to infinity) in Sprague-Dawley rat cerebrospinal fluid treated with risperidone at 1 mg/kg, sc by LC-MS/MS analysis; format: ADME, organism-based; set-up: time infinity, dose 1 mg/kg, route subcutaneous
[9] = Ratio of drug level in brain to plasma in Sprague-Dawley rat treated with risperidone at 1 mg/kg, sc by LC-MS/MS analysis; format: ADME, organism-based; set-up: dose 1 mg/kg, route subcutaneous; settings: read-out: BPR
[10] = test system: Nucleic Acid; test: Ratio of drug level in cerebrospinal fluid to unbound plasma concentration in Sprague-Dawley rat treated with risperidone at 1 mg/kg, sc by LC-MS/MS analysis; format: ADME, organism-based; set-up: dose 1 mg/kg, route subcutaneous; settings: in vivo
[11] = Ratio of unbound brain concentration to drug level in cerebrospinal fluid in Sprague-Dawley rat treated with risperidone at 1 mg/kg, sc by LC-MS/MS analysis; format: ADME, organism-based; set-up: dose 1 mg/kg, route subcutaneous; settings: in vivo
[12] = Ratio of unbound drug level in brain to plasma in Sprague-Dawley rat treated with risperidone at 1 mg/kg, sc by LC-MS/MS analysis; format: ADME, organism-based; set-up: dose 1 mg/kg, route subcutaneous
[13] = Unbound fraction in Beagle dog plasma treated with risperidone at 0.1 mg/kg, sc by LC-MS/MS analysis; format: ADME, organism-based, Canis lupus familiaris; set-up: dose 0.1 mg/kg, route subcutaneous
[14] = Unbound fraction in Beagle dog brain treated with risperidone at 0.1 mg/kg, sc by LC-MS/MS analysis; format: ADME, organism-based, Canis lupus familiaris; set-up: dose 0.1 mg/kg, route subcutaneous
[15] = AUC(0 to 2 hrs) in Sprague-Dawley rat brain treated with risperidone at 1 mg/kg, sc by LC-MS/MS analysis; format: ADME, organism-based; set-up: time < 2 hr, dose 1 mg/kg, route subcutaneous
[16] = AUC(0 to infinity) in Sprague-Dawley rat brain treated with risperidone at 1 mg/kg, sc by LC-MS/MS analysis; format: ADME, organism-based; set-up: time infinity, dose 1 mg/kg, route subcutaneous
[17] = Ratio of unbound brain concentration to drug level in cerebrospinal fluid in Beagle dog treated with risperidone at 0.1 mg/kg, sc by LC-MS/MS analysis; format: ADME, organism-based, Canis lupus familiaris; set-up: dose 0.1 mg/kg, route subcutaneous; settings: in vivo
[18] = Ratio of unbound brain concentration to drug level in cerebrospinal fluid in cynomolgus monkey treated with risperidone at 0.1 mg/kg, sc by LC-MS/MS analysis; format: ADME, organism-based, Macaca fascicularis; set-up: dose 0.1 mg/kg, route subcutaneous; settings: in vivo
[19] = Ratio of unbound drug level in brain to plasma in Beagle dog treated with risperidone at 0.1 mg/kg, sc by LC-MS/MS analysis; format: ADME, organism-based, Canis lupus familiaris; set-up: dose 0.1 mg/kg, route subcutaneous; settings: brain and plasma
[20] = Ratio of unbound drug level in brain to plasma in cynomolgus monkey treated with risperidone at 0.1 mg/kg, sc by LC-MS/MS analysis; format: ADME, organism-based, Macaca fascicularis; set-up: dose 0.1 mg/kg, route subcutaneous; settings: brain and plasma
[21] = AUC(0 to 2 hrs) in Beagle dog cerebrospinal fluid treated with risperidone at 0.1 mg/kg, sc by LC-MS/MS analysis; format: ADME, organism-based, Canis lupus familiaris; set-up: time < 2 hr, dose 0.1 mg/kg, route subcutaneous
[22] = AUC(0 to 1 hr) in cynomolgus monkey cerebrospinal fluid treated with risperidone at 0.1 mg/kg, sc by LC-MS/MS analysis; format: ADME, organism-based, Macaca fascicularis; set-up: time < 1 hr, dose 0.1 mg/kg, route subcutaneous
[23] = AUC(0 to 2 hrs) in Beagle dog brain treated with risperidone at 0.1 mg/kg, sc by LC-MS/MS analysis; format: ADME, organism-based, Canis lupus familiaris; set-up: time < 2 hr, dose 0.1 mg/kg, route subcutaneous
[24] = AUC(0 to 1 hr) in cynomolgus monkey brain treated with risperidone at 0.1 mg/kg, sc by LC-MS/MS analysis; format: ADME, organism-based, Macaca fascicularis; set-up: time < 1 hr, dose 0.1 mg/kg, route subcutaneous
[25] = Ratio of drug level in brain to plasma in Beagle dog treated with risperidone at 0.1 mg/kg, sc by LC-MS/MS analysis; format: ADME, organism-based, Canis lupus familiaris; set-up: dose 0.1 mg/kg, route subcutaneous; settings: brain and plasma, read-out: BPR
[26] = Ratio of drug level in brain to plasma in cynomolgus monkey treated with risperidone at 0.1 mg/kg, sc by LC-MS/MS analysis; format: ADME, organism-based, Macaca fascicularis; set-up: dose 0.1 mg/kg, route subcutaneous; settings: brain and plasma, read-out: BPR

- fraction unbound [1]: 0.185
- fraction unbound [2]: 0.105
- AUC(0-t) at 2 h [3]: 77.4 ng·h/mL
- AUC(0-t) at 1 h [4]: 76 ng·h/mL
- AUC(0-t) at 2 h [5]: 184 ng·h/mL
- AUC(0-inf) [6]: 342 ng·h/mL
- AUC(0-t) at 2 h [7]: 3.28 ng·h/mL
- AUC(0-inf) [8]: 12.2 ng·h/mL
- Kp [9]: 0.07
- Ratio [10]: 0.14
- Ratio [11]: 0.31
- Kp uu [12]: 0.04
- fraction unbound [13]: 0.203
- fraction unbound [14]: 0.0903
- AUC(0-t) at 2 h [15]: 13.5 ng·h/mL
- AUC(0-inf) [16]: 69 ng·h/mL
- Ratio [17]: 0.68
- Ratio [18]: 1.03
- Kp uu [19]: 0.27
- Kp uu [20]: 0.19
- AUC(0-t) at 2 h [21]: 6.27 ng·h/mL
- AUC(0-t) at 1 h [22]: 2.54 ng·h/mL
- AUC(0-t) at 2 h [23]: 47.1 ng·h/mL
- AUC(0-t) at 1 h [24]: 24.8 ng·h/mL
- Kp [25]: 0.61
- Kp [26]: 0.33
SMILES: Cc1nc2n(c(=O)c1CCN1CCC(c3noc4cc(F)ccc34)CC1)CCCC2O (stereo unspecified) [PALIPERIDONE]
